Key:
Format in all cases: biochemical
MMP-2 = biological target: T1, MMP-2 (Homo sapiens, UniProt P08253); assay: MMP-2 activity in lysates of fibroblasts cultured from AAA specimens, gelatin zymography with densitometry; settings: for MMP-2 inhibitory ability (in words): aneurysmal fibroblast MMP-2; for MMP-2 Inhibitory Activity: relative, aneurysmal fibroblast lysates, 1 hour incubation on ice
T1 construct: endogenous in cells; host or cells: fibroblasts cultured from AAA (abdominal aortic aneurysm) specimens
T1 sequence (P08253 110-660): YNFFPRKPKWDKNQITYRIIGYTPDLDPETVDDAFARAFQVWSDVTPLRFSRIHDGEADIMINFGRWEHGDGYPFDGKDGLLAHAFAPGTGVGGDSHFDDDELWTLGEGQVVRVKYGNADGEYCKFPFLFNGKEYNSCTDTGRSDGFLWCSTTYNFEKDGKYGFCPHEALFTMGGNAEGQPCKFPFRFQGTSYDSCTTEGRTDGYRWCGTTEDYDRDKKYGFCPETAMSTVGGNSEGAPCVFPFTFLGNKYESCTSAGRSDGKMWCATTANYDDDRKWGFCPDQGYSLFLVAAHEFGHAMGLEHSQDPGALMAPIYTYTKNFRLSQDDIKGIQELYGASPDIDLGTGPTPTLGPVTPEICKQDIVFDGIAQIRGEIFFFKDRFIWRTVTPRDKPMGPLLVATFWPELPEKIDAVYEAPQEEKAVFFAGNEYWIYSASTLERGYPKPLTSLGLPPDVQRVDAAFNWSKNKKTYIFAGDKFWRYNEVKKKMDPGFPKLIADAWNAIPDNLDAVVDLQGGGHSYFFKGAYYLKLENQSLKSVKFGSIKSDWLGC
Method: Properties of different test compounds against MMP-2 activity of aneurysmal fibroblast origin were examined on 10% polyacrylamide gels containing 1.0 mg/mL of gelatin. Fibroblasts cultured from AAA specimens were lysed using the CellLytic-M lysis/extraction reagent. The protein concentration of each supernatant was determined using the Bradford method using bovine serum albumin as a standard. The aortic fibroblast lysates were incubated alone (control) or with an illustrative Compound or Extract of the Invention at various concentrations for 1 hour on ice. After test compound incubation, equivalent amounts of proteins (30 μg) were mixed with an equal volume of sample buffer (2% SDS, 125 mM Tris-HCL, pH 6.8, 10% glycerol and 0.001% bromophenol blue) and the resulting mixture was subjected to electrophoresis in Trir-glycine el. buffer (25 mMTris pH 8.3, 250 mM Glycine, 0.1% SDS) under denatured but non-reduced conditions. After completion of electrophoresis, the gels were incubated in 2% Triton X-100 for 30 min at room temperature to ensure complete removal of SDS. The gels were then incubated at 37° C. overnight in development buffer (0.005M Tris-HCl (pH 7.5), 0.2MNaCl, 0.005MCaCl2, and 0.02% Brij-35) (Bio-Rad). Gels were stained with 0.05% Coomassie blue R250 (Bio-Rad) for 30 min and destained twice in a mixture of 40% methanol and 10% acetic acid for 20 min. Enzyme activity was detected as unstained bands on a blue background. Quantity One (Bio-Rad Version 4.3.1) was used as a densitometer to quantitate test compound inhibitory ability.

total complement = assay: Total complement activity (CH50) in human serum; settings: 30 minutes at 37° C.
Method: Blood was collected from a healthy human donor and allowed to clot at room temperature for 60 minutes. The serum was separated from the clotted blood and transferred to a clean tube. Fucosylated chondroitin sulfate (FCS) was incubated in concentrations of 0.1 mg/mL, 0.4 mg/mL and 1 mg/mL for 30 minutes at 37° C. and the complement was examined by assaying total complement activity (CH50). Complement inhibition was about 40% at a FCS concentration of 0.1 mg/mL, about 83% at a concentration of 0.4 mg/mL and complete at a concentration of 1.0 mg/mL.

C3a = assay: Complement factor C3a levels in normal human serum, with or without HAGG; settings: alone and with HAGG, 30 minutes at 37° C.
Method: (§1) An experiment to measure the complement factors C3a and C5a was carried out at […] for 30 minutes using heat-aggregated gamma globulin (HAGG, at 14 mg/mL), a complement activator with known activity, as a positive control.
(§2) Four separate mixtures were prepared by mixing 8 parts of normal human serum with: (1) 2 parts saline, (2) 1 part saline and 1 part HAGG, (3) 1 part saline and 1 part fucosylated chondroitin sulfate (FCS), or (4) 1 part HAGG and 1 part FCS. These four mixtures were then incubated for 30 minutes at 37° C. and the complement was examined by assaying for levels of C3a and C5a.

C5a = assay: Complement factor C5a levels in normal human serum, with or without HAGG; settings: alone and with HAGG, 30 minutes at 37° C.
Method: as §1, §2

Row | Compound | MMP-2 inhibitory ability (in words) (MMP-2) | MMP-2 Inhibitory Activity (MMP-2) | Complement inhibition (CH50) (total complement; 0.1 mg/mL) | Complement inhibition (CH50) (total complement; 0.4 mg/mL) | Complement inhibition (CH50) (total complement; 1.0 mg/mL) | inhibitory activity toward C3a (C3a) | inhibitory activity toward C5a (C5a)
1 | CCC(C)CCCCCCCCCCC(=O)O (centres unmarked) [12-methyltetradecanoic acid] | inhibit aneurysmal fibroblast MMP-2 activity | + | – | – | – | – | –
2 | Oc1cc(O)c2c(c1)O[C@H](c1cc(O)c(O)c(O)c1)[C@H](O)C2 [(−)-epigallocatechin] | inhibit aneurysmal fibroblast MMP-2 activity | + | – | – | – | – | –
3 | fucosylated chondroitin sulfate | inhibit aneurysmal fibroblast MMP-2 activity | +++ | about 40% | about 83% | complete | strong inhibitory activity | strong inhibitory activity
